Experimental data published in patent US20200297820A1, “STIMULATION OF HUMAN MEIBOMIAN GLAND FUNCTION” (The Schepens Eye Research Institute, Inc., priority 2013, published 2020).
Entries after “also recorded” stand apart in the source; their conditions may differ. Like-named read-outs stand apart in the source and are kept apart here.

How the values were obtained:
Format in all cases: cell-based
[1] = tested on: immortalized human meibomian gland epithelial cells; assay: LipidTOX green neutral lipid staining (lipid accumulation); conditions: for accumulation of lipid: days 1 to 7; for accumulation of neutral lipids: 10 nM, 6 days, differentiation media
Method: (§1) As an example of these experiments, immortalized human meibomian gland epithelial cells were cultured in the presence or absence of 10% fetal bovine serum. Cells were treated with an ethanol vehicle or azithromycin (10 μg/ml; Santa Cruz Biotechnology) for varying time periods. Cellular morphological appearance was recorded, cells were counted with a hemocytometer, and lipid accumulation was assessed by staining the cells with LipidTOX green neutral lipid stain (Invitrogen, Grand Island, N.Y.), according to reported methods. Staining fluorescent intensities were quantified by using ImageJ (http://rsbweb.nih.gov/ij/index.html). Statistical analyses were performed with Student's t-test (two-tailed, unpaired).
(§2) Immortalized human meibomian gland epithelial cells (IHMGECs; passages 20-22) were cultured in the presence or absence of 10% fetal bovine serum. Cells were treated with the ethanol vehicle or azithromycin (10 μg/mL) for varying periods. Cellular morphological appearance was recorded, cells were counted with a hemocytometer, and lipid accumulation was assessed by staining cells with LipidTOX green neutral lipid stain (Invitrogen Corp). Staining fluorescent intensities were quantified using ImageJ software (http://rsbweb.nih.gov/ij/index.html). Statistical analyses were performed with t test (2-tailed, unpaired).
Cell numbers were enumerated with a hemocytometer. Cellular lipid and lysosome accumulation were examined by staining cells with: Filipin III (a fluorometric probe for identifying unesterified cholesterol), LipidTOX green neutral lipid stain, and LysoTracker® Red DND-99 (a fluorescent technique designed for labeling acidic organelles such as lysosomes). Lysosomal lamellar bodies were identified by transmission electron microscopy. In brief, after culture and treatment on 24 mm polycarbonate membrane transwell inserts (0.4 μm pore size), cells were fixed in a solution of 2% formaldehyde+2.5% glutaraldehyde, in 0.08 M sodium cacodylate buffer, pH 7.4, post-fixed with 2% osmium tetroxide in 0.1 M sodium cacodylate buffer, and stained en bloc with 2% aqueousuranyl acetate. […] Cross sections (1 μM) were stained with 1% toluidine blue in 1% sodium tetraborate solution. Ultra-thin sections (60-90 nm) were imaged with a transmission electron microscope interfaced with a digital CCD camera. For biochemical assessments, cellular lipids were extracted with chloroform and methanol from samples with the same amount of protein. Lipids were then evaluated with high-performance thin-layer chromatography. With regard to the staining results, three Filipin, five LipidTox and four LysoTracker studies were conducted, and each experiment was performed in duplicate. Four random pictures were taken of each group, and four random areas were selected for the measurement of fluorescent intensities. The HPTLC experiments were performed in duplicate more than three times. Image data were quantified with ImageJ (http://rsbweb.nib.gov/ij/index.html). Electron microscopic analyses were performed in triplicate.
The experiment included green neutral lipid staining. Immortalized human meibomian gland epithelial cells were cultured in slides treated to facilitate cell growth in FBS-containing medium in the presence or absence of IGF-1, anti-IGF-1R, and/or GH. Media were replaced every 2 to 3 days for a total of 6 days, at which time cells were washed and fixed in 4% paraformaldehyde for 30 minutes. After additional washes, cells were stained with green neutral lipid stain in a humid chamber for 30 minutes. Coverslips were mounted on slides with an antifade reagent that contains 4′,6-diamidino-2-phenylindole nuclear stain and permitted to dry overnight before imaging with a microscope. Fluorescence intensity was quantified using image-processing software.

[2] = tested on: immortalized human meibomian gland epithelial cells; assay: Cell proliferation, cells counted with a hemocytometer; conditions: for cell proliferation: 10 nM IGF-1 or 10 μg/mL AZM, 13 days, P<0.0001; for cell number: 10 nM
Method: as §1, §2
Regarding cell proliferation assay, the human meibomian gland epithelial cells and LNCaP cells were cultured in 12-well plates in designated media and then exposed to IGF-1 or GH for defined periods. At experimental termination, cells were trypsinized and counted with a hemocytometer.
FIGS. 10a, 10b, and 10c illustrate the influence of IGF-1 on the proliferation of human meibomian gland epithelial cells. Cells were cultured (100,000 cells/well in 12-well plates, 3 wells per group) in basal, proliferating, and/or differentiating media and treated with IGF-I for 2 to 6 days. […] P values are for post hoc comparison compared with the control value. […] ANOVA indicates analysis of variance; EGF-BPE, epidermal growth factor-bovine pituitary extract; KSFM, keratinocyte serum-free medium. All comparisons are with control value. Whiskers mark SEM. aP<0.05 compared with the control value, post hoc test.

[3] = tested on: human meibomian gland epithelial cells; assay: Immunoblot of SREBP-1 and cyclins B1, D1; conditions: for amount of the precursor form of SREBP-1 protein: 10 nM, 6 days, differentiation media
Method: The disclosure turns now to sodium dodecyl sulfate-polyacrylamide gel, electrophoresis, and immunoblots. Cells were directly lysed in Laemmli buffer supplemented with 1% protease inhibitor cocktail (Sigma-Aldrich) and 5% β-mercaptoethanol (Sigma-Aldrich). Lysates were heated at 95° C. for 10 minutes, separated by sodium dodecyl sulfate-polyacrylamide gel electrophoresis on 10% Tris-glycine precast gels, and transferred to polyvinylidene difluoride membranes. Rabbit or mouse antibodies used were specific for phosphorylated Akt (p-Akt), pan-Akt, p-FoxO1, FoxO1, p-JAK2, JAK2, and β-actin; for p-ERK, ERK-2, STAT5, and the precursor form of SREBP-1; and for p-STAT5. Membranes were blocked with 5% bovine serum albumin in Tris-buffered saline containing 0.01% polysorbate 20. All primary antibodies were diluted to 1:1000 in blocking buffer except for p-Akt (1:4000), p-ERK (1:2000), ERK-2 (1:4000), SREBP-1 (1:200), and β-actin (1:10 000). Horseradish peroxidase-conjugated secondary antibodies were goat anti-rabbit IgG and Fc-specific goat anti-mouse IgG diluted to 1:5000. Proteins were visualized with enhanced chemiluminescent substrate or with ultrasensitive chemiluminescent substrate. Densitometry was performed with image-processing software.
Turning to the influence of IGF-1 and GH on SREBP-1 expression and lipid accumulation, the experiments examined whether IGF-1 stimulates SREBP-1 expression and lipid accumulation in human meibomian gland epithelial cells. Cells were cultured for 6 days in differentiation media with IGF-1 and then processed the cells for protein and histologic analysis.
FIGS. 11a, 11b, 11c, and 11d illustrate the effect of IGF-1 on sterol regulatory element-binding protein (SREBP-1) expression and lipid accumulation in human meibomian gland epithelial cells. Cells were exposed to IGF-1 or growth hormone (GH) for 6 days in differentiation media and then processed for the analysis of the precursor form of SREBP-1 protein. […] represents 4′,6-diamidino-2-phenylindole nuclear staining. The SREBP-1 densitometry, normalized to that of β-actin, and neutral lipid staining fluorescence intensity (6 field views per treatment condition) were quantified by using image-processing software. These experiments were repeated at least 3 times with similar results. ANOVA indicates analysis of variance; AU, arbitrary units. Whiskers represent SEM.
FIGS. 15a, 15b, 15c, and 15d illustrate the effect of IGF-1, AZM, and IFG-1+AZM combination on the expression of SREBP-1, cyclins B1, and D1. Cells were incubated with vehicle, 10 nM IGF-1, 10 μg/mL AZM, or IGF-1+AZM combination for 5 days. Cell lysates were evaluated on immunoblots for precursor and mature forms of SREBP-1, cyclins B1 and D1. FIG. 15a quantifies the protein band intensities using ImageJ. […] These experiments were repeated at least three times with similar results.

[4] = azithromycin 10 μg/ml vs vehicle
[5] = 10 nM IGF-1 or 10 μg/mL AZM, 5 days

Molecule	fluorescence intensity of LipidTOX staining ([1]; 10 μg/mL, 13 days, two-way ANOVA P<0.0001)	accumulation of neutral lipids (LipidTOX) ([1]; 10 μg/ml, 5 days)	time to marked increase of number, size and staining intensity of intracellular lipid-containing vesicles [1, 4] [days]	accumulation of lipid [1, 4]	accumulation of lipid ([1]; azithromycin 10 μg/ml vs vehicle, listed as azithromycin)	cell proliferation [2]	proliferation ([2]; azithromycin 10 μg/ml, absence and presence of serum, days 1 to 7)	expression of mature SREBP-1 [3, 5]	expression of SREBP-1 protein ([3]; azithromycin 10 μg/ml)	accumulation of neutral lipids [1]	proliferation [2]	cell number ([2]; 10% FBS-containing medium, 2 to 6 days)	cell number ([2]; keratinocyte serum-free medium alone or with EGF-BPE, 2 days)	expression of pre-SREBP-1 ([3]; 10 nM IGF-1, 5 days)	expression of cyclin B1 [3, 5]	amount of the precursor form of SREBP-1 protein [3]	expression of SREBP-1 protein ([3]; IGF-1 10 nM, alone or with GH and/or DHT)	proliferation ([2]; any of the media, doses 0.1 to 100 nM)
CC[C@H]1OC(=O)[C@H](C)[C@@H](O[C@H]2C[C@@](C)(OC)[C@@H](O)[C@H](C)O2)[C@H](C)[C@@H](O[C@@H]2O[C@H](C)C[C@H](N(C)C)[C@H]2O)[C@](C)(O)C[C@@H](C)CN(C)[C@H](C)[C@@H](O)[C@]1(C)O [Azithromycin]	significant effect	significantly stimulates the accumulation	≤ 3	striking, time-dependent accumulation of lipid	time-dependent accumulation of lipids; also recorded: striking, time-dependent accumulation of lipid	significant but opposite effect	generally reduced the proliferation	significant effect	increased expression									
IGF-1: recombinant human insulin-like growth factor 1						significant but opposite effect		significantly affected		increase in the accumulation of neutral lipids	increases the proliferation	increase in cell number	not under basal conditions	significantly affected	significantly affected	rise in the amount of the precursor form of SREBP-1 protein	significant increase in the expression of SREBP-1 protein	
GH: human growth hormone										not duplicated						not duplicated		no influence on the proliferation
